Experimental data published in patent publication US7432056B2, “Biallelic markers derived from genomic regions carrying genes involved in arachidonic acid metabolism” (Serono Genetics Institute S.A., priority 1999, dated 2008).

Experiment: Hepatotoxicity monitored by serum alanine aminotransferase (ALT) level in a clinical study of zileuton
Type: in vivo, human
From the text: In another preferred embodiment, the trait considered was a side effect upon drug treatment; the study involved two populations derived from a clinical study of the anti-asthmatic drug zileuton. The case population was composed of asthmatic individuals treated with Zileuton showing zileuton-associated hepatotoxicity monitored by the serum level of alanine aminotransferase (ALT) and the control population was composed of asthmatic individuals treated with zileuton and having no increased serum level of ALT. Inclusion criteria and association between the biallelic markers of the present invention and zileuton-associated hepatotoxicity are further described below in IV.E. Association of Biallelic Markers of the Invention with Hepatoxicity to Anti-Asthma Drug Zileuton and in Example 5, Association between Side Effects upon Treatment with the Anti-Asthmatic Drug Zileuton (Zyflo™) and the Biallelic Markers of the 12-lipoxygenase Gene.
Zileuton (Zyflo™) is an active inhibitor of 5-lipoxygenase, the enzyme that catalyzes the formation of leukotrienes from arachidonic acid, indicated for prophylaxis and chronic treatment of asthma. […] The ALT test (serum level of alanine aminotransferase) was used, which is considered the most sensitive indicator of liver injury.
The side effect examined in this study was the hepatotoxicity experienced by asthmatic individuals as a result of their treatment with Zileuton as part of a clinical study. […] Hepatotoxicity was monitored by measuring the serum levels of alanine aminotransferase (ALT), which is a sensitive indicator of liver cell damage.
As mentioned above, an association study is more informative if the case-control populations present extreme phenotypes. Therefore, the asthmatic individuals, which were selected for the side effect positive trait (ALT+), corresponded to 89 individuals that presented at least 3 times the upper limit of normal (ULN) level of ALT. On the other side, the asthmatic individuals that were selected for the side effect negative trait (ALT−) corresponded to 208 individuals that presented less than 1×ULN of ALT. ALT+ and ALT− populations corresponded to 4% and 35% respectively of the total asthmatic individuals that participated in this study.

CC(c1cc2ccccc2s1)N(O)C(N)=O (stereo not shown) [Zileuton]
asthmatic individuals that did not experience Zileuton-associated ALT increase compared to ALT levels prior to zileuton intake (asthmatic individuals treated with zileuton in a clinical study, serum ALT): More than 90%
ALT+ population (at least 3 times the upper limit of normal level of ALT) as share of total asthmatic individuals in the study (asthmatic individuals treated with zileuton, 89 individuals): 4%
ALT- population (less than 1xULN of ALT) as share of total asthmatic individuals in the study (asthmatic individuals treated with zileuton, 208 individuals): 35%
liver function abnormalities in zileuton-treated patients (elevations of liver function tests during treatment, ALT test): A minority of zileuton-treated patients develop liver function abnormalities
